Results from patent publication US9315475B2 (MERCK SHARP & DOHME CORP., priority 2011, dated 2016).

System: HIV-1 (H9IIIB strain)
Test: Antiviral acute infection assay in cell culture (Spread)
Assay type: cell-based
Conditions: HIV-1 H9IIIB infection of MT-4 human T-lymphoid cells in 10% FBS; mean of at least two independent experiments
Excerpt: Antiviral Assays in Cell Culture (“Spread”)
Acute Infection Assay (“Spread”) data were generated using HIV-1 (H9IIIB strain) infection of MT-4 human T-lymphoid cells in 10% FBS, and according to the methods disclosed by J. P. Vacca et al, “L-735,524: An orally bioavailable human immunodeficiency virus type 1 protease inhibitor,” Proc. Natl. Acad. Sci. USA, Vol. 91, pp. 4096-4100 (April 1994).

Which EC50 does the source give for O=C(C[C@@H](c1ccc(F)cc1)c1ccc(OC(F)(F)F)cc1)Nc1cccc(F)c1CC[C@@H]1CN[C@H](COC(=O)NCC(F)(F)F)CO1 [Example 159, [(3S,6R)-6-{2-[2-fluoro-6-({(3R)-3-(4-fluorophenyl)-3-[4-(trifluoro-methoxy)phenyl]propanoyl}amino)phenyl]ethyl}morpholin-3-yl] methyl (2,2,2-trifluoroethyl)carbamate] here?
Its EC50 is 380 nM.

Same assay, conditions: Human immunodeficiency virus 1, T-lymphoid, HIV-1 H9IIIB infection of MT-4 human T-lymphoid cells in 10% FBS; mean of at least two independent experiments

Which EC50 does the source give for COC(=O)N[C@H](C(=O)Nc1cccc(F)c1CC[C@@H]1CN[C@H](COC(N)=O)CO1)[C@@H](c1ccc(F)cc1)c1cccc(F)c1 [Example 118, (βS)—N-[2-(2-{(2R,5S)-5-[(Carbamoyloxy)methyl]morpholin-2-yl}ethyl)-3-fluorophenyl]-4-fluoro-β-(3-fluorophenyl)-Nα-(methoxycarbonyl)-L-phenylalaninamide] here?
The EC50 was 17 nM.

Which EC50 does the source give for NC(=O)OC[C@@H]1CO[C@H](CCc2c(F)cccc2NC(=O)[C@@H](N)[C@@H](c2ccc(F)cc2)c2cccc(F)c2)CN1 [Example 120, (βS)—N-[2-(2-{(2R,5S)-5-[(Carbamoyloxy)methyl]morpholin-2-yl}ethyl)-3-fluorophenyl]-4-fluoro-β-(3-fluorophenyl)-L-phenylalaninamide] here?
The EC50 was 20 nM.

Which EC50 does the source give for N#Cc1ccc([C@@H](CC(=O)Nc2cncc(F)c2CC[C@@H]2CN[C@H](COC(=O)NCC(F)(F)F)CO2)c2ccc(F)c(F)c2)cc1 [Example 115, {(3S,6R)-6-[2-(3-{[(3R)-3-(4-Cyanophenyl)-3-(3,4-difluorophenyl)propanoyl]amino}-5-fluoropyridin-4-yl)ethyl]morpholin-3-yl}methyl (2,2,2-trifluoroethyl)carbamate] here?
The EC50 was 30 nM.

How did the EC50 turn out when N[C@H](C(=O)Nc1cccc(F)c1CC[C@@H]1CN[C@H](COC(=O)NCC(F)(F)F)CO1)[C@H](c1ccc(Cl)cc1)c1ccc2c(c1)OCO2 [Example 100, {(3S,6R)-6-[2-(2-{[(3R)-3-(1,3-Benzodioxol-5-yl)-3-(4-chlorophenyl)-L-alanyl]amino}-6-fluorophenyl)ethyl]morpholin-3-yl}methyl (2,2,2-trifluoroethyl)carbamate] was run?
Its EC50 is 39 nM.

For O=C(CC(c1ccc(F)cc1)c1ccc(F)cc1)Nc1cccc(F)c1CC[C@@H]1CN[C@H](CNC(=O)OCC(F)(F)F)CO1 [Example 87, 2,2,2-trifluoroethyl ({(3R,6R)-6-[2-(2-{[3,3-bis(4-fluoro-phenyl)propanoyl]amino}-6-fluorophenyl)ethyl]morpholin-3-yl}methyl) carbamate], which EC50 is on record?
The EC50 was 2200 nM.

O=C(C[C@@H](c1ccc(Cl)cc1)c1ccc2c(c1)CCO2)Nc1cncc(F)c1CC[C@@H]1CN[C@H](COC(=O)NCC(F)(F)F)CO1 [Example 114, {(3S,6R)-6-[2-(3-{[(3S)-3-(4-Chlorophenyl)-3-(2,3-dihydro-1-benzofuran-5-yl)propanoyl]amino}-5-fluoropyridin-4-yl)ethyl]morpholin-3-yl}methyl (2,2,2-trifluoroethyl)carbamate] was tested. Which EC50 did it give?
Its EC50 is 14 nM.

For CC(NC(=O)OC[C@@H]1CO[C@H](CCc2c(F)cncc2NC(=O)CC(c2ccc(F)cc2)c2ccc(F)cc2)CN1)C1CCCO1 (stereo partly drawn) [Example 171, {(3S,6R)-6-[2-(3-{[3,3-bis(4-fluoro-phenyl)propanoyl]amino}-5-fluoropyridin-4-yl)ethyl]morpholin-3-yl}methyl [1-(tetrahydrofuran-2-yl)ethyl]carbamate], which EC50 is on record?
Its EC50 is 68 nM.

For N[C@H](C(=O)Nc1cncc(F)c1CC[C@@H]1CN[C@H](COC(=O)NCC(F)(F)F)CO1)[C@H](c1ccc(F)cc1)c1ccc(-c2cccnc2)cc1 [Example 224, (βS)-β-(4-fluorophenyl)-N-(5-fluoro-4-{2-[(2R,5S)-5-({[(2,2,2-trifluoro-ethyl)carbamoyl]oxy}methyl)morpholin-2-yl]ethyl}pyridin-3-yl)-4-pyridin-3-yl-L-phenylalaninamide], which EC50 is on record?
The EC50 was 260 nM.

N[C@H](C(=O)Nc1cccc(F)c1CC[C@@H]1CN[C@H](COC(=O)NCC(F)(F)F)CO1)[C@@H](c1ccc(F)cc1)c1ccc(OC(F)(F)F)cc1 [Example 219, (βR)-β-(4-fluorophenyl)-N-(3-fluoro-2-{2-[(2R,5S)-5-({[(2,2,2-trifluoroethyl)carbamoyl]oxy}methyl)morpholin-2-yl]ethyl}phenyl)-O-(trifluoromethyl)-L-tyrosinamide] was tested. Which EC50 did it give?
Its EC50 is 140 nM.

With COC(=O)N[C@H](C(=O)Nc1cccc(F)c1CC[C@@H]1CN[C@H](COC(=O)NCC(F)(F)F)CO1)C(c1ccc(Cl)cc1)c1ccc(Cl)cc1 [Example 108, 4-Chloro-β-(4-chlorophenyl)-N-(3-fluoro-2-{2-[(2R,5S)-5-({[(2,2,2-trifluoroethyl)carbamoyl]oxy}methyl)morpholin-2-yl]ethyl}phenyl)-Nα-(methoxycarbonyl)-L-phenylalaninamide] as the compound, how does the EC50 read?
The EC50 was 860 nM.

How did the EC50 turn out when O=C(CC(F)(F)F)NC[C@@H]1CO[C@H](CCc2c(F)cccc2NC(=O)CC(c2ccc(F)cc2)c2ccc(F)cc2)CN1 [Example 144, N-({(3R,6R)-6-[2-(2-{[3,3-Bis(4-fluorophenyl)propanoyl]amino}-6-fluorophenyl)ethyl]morpholin-3-yl}methyl)-3,3,3-trifluoropropanamide] was run?
The EC50 was 170 nM.

O=C(CC(c1ccc(F)cc1)c1ccc(F)cc1)Nc1cncc(F)c1CC[C@@H]1CN[C@H](CNC(=O)OCC(F)(F)F)CO1 [Example 85, 2,2,2-trifluoroethyl ({(3R,6R)-6-[2-(3-{[3,3-bis(4-fluoro-phenyl)propanoyl]amino}-5-fluoropyridin-4-yl)ethyl]morpholin-3-yl}methyl)carbamate] was tested. Which EC50 did it give?
Its EC50 is 87 nM.

N[C@H](C(=O)Nc1cccc(F)c1CC[C@@H]1CN[C@H](COC(=O)NC2CCOCC2)CO1)C(c1ccc(F)cc1)c1ccc(F)cc1 [Example 223, 4-fluoro-β-(4-fluorophenyl)-N-(3-fluoro-2-{2-[(2R,5S)-5-{[(tetrahydro-2H-pyran-4-ylcarbamoyl)oxy]methyl}morpholin-2-yl]ethyl}phenyl)-L-phenylalaninamide] was tested. Which EC50 did it give?
The EC50 was 1400 nM.

For O=C(C[C@@H](c1ccc(F)cc1)c1cncc(C(F)(F)F)c1)Nc1cccc(F)c1CC[C@@H]1CN[C@H](COC(=O)NCC(F)(F)F)CO1 [Example 139, [(3S,6R)-6-{2-[2-Fluoro-6-({(3S)-3-(4-fluorophenyl)-3-[5-(trifluoromethyl)pyridin-3-yl]propanoyl}amino)phenyl]ethyl}morpholin-3-yl]methyl (2,2,2-trifluoroethyl)carbamate], which EC50 is on record?
Its EC50 is 108 nM.

Which EC50 does the source give for COC(=O)N[C@H](C(=O)Nc1cncc(F)c1CC[C@@H]1CN[C@H](COC(=O)NCC(F)(F)F)CO1)[C@@H](c1ccc(F)cc1)c1cccc(F)c1F [Example 302, (βS)-2,3-difluoro-β-(4-fluorophenyl)-N-(5-fluoro-4-{2-[(2R,5S)-5-({[(2,2,2-trifluoroethyl)carbamoyl]oxy}methyl)morpholin-2-yl]ethyl}pyridin-3-yl)-Nα-(methoxy-carbonyl)-L-phenylalaninamide] here?
The EC50 was 15 nM.

N[C@H](C(=O)Nc1cncc(F)c1CC[C@@H]1CN[C@H](COC(=O)NCC(F)(F)F)CO1)[C@@H](c1ccc(Cl)cc1)c1cccc(OC(F)(F)F)c1 [Example 98, (βS)-β-(4-Chlorophenyl)-N-(5-fluoro-4-{2-[(2R,5S)-5-({[(2,2,2-trifluoroethyl)carbamoyl]oxy}methyl)morpholin-2-yl]ethyl}pyridin-3-yl)-3-(trifluoromethoxy)-L-phenylalaninamide] was tested. Which EC50 did it give?
The EC50 was 28 nM.

O=C(CC(c1ccc(F)cc1)c1ccc(F)cc1)Nc1cncc(F)c1CC[C@@H]1CN[C@H](COC(=O)NCC2CCCO2)CO1 (stereo partly drawn) [Example 169, {(3S,6R)-6-[2-(3-{[3,3-bis(4-fluoro-phenyl)propanoyl]amino}-5-fluoropyridin-4-yl)ethyl]morpholin-3-yl}methyl (tetrahydrofuran-2-ylmethyl)carbamate] was tested. Which EC50 did it give?
Its EC50 is 73 nM.

How did the EC50 turn out when O=C(C[C@@H](c1ccc(F)cc1)c1ccc(C(F)(F)F)nc1)Nc1cncc(F)c1CC[C@@H]1CN[C@H](COC(=O)NCC(F)(F)F)CO1 [Example 133, [(3S,6R)-6-{2-[3-Fluoro-5-({(3S)-3-(4-fluorophenyl)-3-[6-(trifluoromethyl)pyridin-3-yl]propanoyl}amino)pyridin-4-yl]ethyl}morpholin-3-yl]methyl (2,2,2-trifluoroethyl)carbamate] was run?
The EC50 was 23 nM.

Which EC50 does the source give for COC(=O)N[C@H](C(=O)Nc1cccc(F)c1CC[C@@H]1CN[C@H](COC(=O)NCC(F)(F)F)CO1)[C@@H](c1ccc(Cl)cc1)c1cncc(F)c1 [Example 137, (βS)-4-Chloro-β-(5-fluoropyridin-3-yl)-N-(3-fluoro-2-{2-[(2R,5S)-5-({[(2,2,2-trifluoroethyl)carbamoyl]oxy}methyl)morpholin-2-yl]ethyl}phenyl)-Nα-(methoxycarbonyl)-L-phenylalaninamide] here?
The EC50 was 9.8 nM.

Which EC50 does the source give for N[C@H](C(=O)Nc1cncc(F)c1CC[C@@H]1CN[C@H](COC(=O)NCC(F)(F)F)CO1)[C@@H](c1ccc(F)cc1)C1CCOCC1 [Example 127, (βR)-4-Fluoro-N-(5-fluoro-4-{2-[(2R,5S)-5-({[(2,2,2-trifluoroethyl)carbamoyl]oxy}methyl)morpholin-2-yl]ethyl}pyridin-3-yl)-β-(tetrahydro-2H-pyran-4-yl)-L-phenylalaninamide] here?
The EC50 was 71 nM.

For CCc1nc(CNC(=O)OC[C@@H]2CO[C@H](CCc3c(F)cncc3NC(=O)CC(c3ccc(F)cc3)c3ccc(F)cc3)CN2)no1 [Example 174, {(3S,6R)-6-[2-(3-{[3,3-bis(4-fluoro-phenyl)propanoyl]amino}-5-fluoropyridin-4-yl)ethyl]morpholin-3-yl}methyl [(5-ethyl-1,2,4-oxadiazol-3-yl)methyl]carbamate], which EC50 is on record?
The EC50 was 120 nM.

With N[C@H](C(=O)Nc1cccc(F)c1CC[C@@H]1CN[C@H](CNC(=O)OCC(F)(F)F)CO1)C(c1ccc(F)cc1)c1ccc(F)cc1 [Example 88, 4-fluoro-β-(4-fluorophenyl)-N-(3-fluoro-2-{2-[(2R,5R)-5-({[(2,2,2-trifluoro-ethoxy)carbonyl]amino}methyl)morpholin-2-yl]ethyl}phenyl)-L-phenylalaninamide] as the compound, how does the EC50 read?
The EC50 was 450 nM.
